US5332733A, “Heterocyclically substituted piperazinoakylbenzoxazine and piperazinoalkylbenzothiazine compounds, processes for preparing them, and medicaments containing them” (Kali-Chemie Pharma GmbH, priority 1990, dated 1994)

The compounds below were run against T1, 5-lipoxygenase (Mus musculus, UniProt P48999) (assay: In vitro 5-lipoxygenase inhibition, release of LTC4 from zymosan-stimulated peritoneal macrophages). Settings: zymosan-stimulated mouse peritoneal macrophage cells, 10^-5 mole/l.
T1 construct: A cell suspension containing peritoneal cells from male mice 8-10 weeks old was obtained in a known manner; endogenous in cells; host or cells: mouse peritoneal macrophages (primary, adherent)
T1 sequence (P48999 1-674): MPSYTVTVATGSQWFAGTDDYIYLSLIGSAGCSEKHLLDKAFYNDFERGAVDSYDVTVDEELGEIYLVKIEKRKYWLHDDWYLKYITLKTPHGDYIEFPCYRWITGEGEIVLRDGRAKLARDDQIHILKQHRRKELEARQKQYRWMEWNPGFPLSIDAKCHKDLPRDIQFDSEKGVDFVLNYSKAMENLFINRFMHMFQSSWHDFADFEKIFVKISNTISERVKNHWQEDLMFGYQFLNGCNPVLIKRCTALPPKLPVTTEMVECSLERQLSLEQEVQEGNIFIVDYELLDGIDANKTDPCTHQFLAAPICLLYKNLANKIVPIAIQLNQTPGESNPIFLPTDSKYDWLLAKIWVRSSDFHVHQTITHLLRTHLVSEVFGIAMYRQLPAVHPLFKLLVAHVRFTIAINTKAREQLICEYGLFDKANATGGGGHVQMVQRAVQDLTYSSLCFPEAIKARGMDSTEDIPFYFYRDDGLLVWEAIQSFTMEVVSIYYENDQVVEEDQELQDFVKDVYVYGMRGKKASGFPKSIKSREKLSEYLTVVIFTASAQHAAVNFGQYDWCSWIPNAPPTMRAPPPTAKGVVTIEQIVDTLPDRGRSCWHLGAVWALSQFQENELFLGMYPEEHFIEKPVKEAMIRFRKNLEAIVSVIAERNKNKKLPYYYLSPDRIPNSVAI
Type: cell-based
Excerpt: 5. In Vitro Determination of Cyclooxygenase Inhibition And 5-lipoxygenase Inhibition.
After a cell is activated, arachidonic acid contained in cell membranes is metabolized in two ways. Leucotrienes, inter alia leucotriene C4, are formed due to the action of the enzyme 5-lipoxygenase (=5-LO), and prostanoids are formed due to the action of the enzyme cyclooxygenase (=CO). In in vitro systems these metabolites are secreted from the cell.
To evaluate the cyclooxygenase-inhibiting and 5-lipoxygenase-inhibiting properties of the test substances, their inhibitory activity on the biosynthesis of the arachidonic acid derivatives leucotriene C4 (=LTC4) and 6-keto-prostaglandin F1α (=6-keto-PGF1α) was determined in vitro on mouse peritoneal macrophage cells. For this purpose the LTC4 and 6-keto-PGF1α contents of a mouse peritoneal macrophage cell culture medium were determined by zymosan stimulation as described by Scott et al. (J. Exp. Med. 152 (1980), 324-335) and by Fradin et al., (Prostaglandins, 33 (1987), 579-589).
A cell suspension containing peritoneal cells from male mice 8-10 weeks old was obtained in a known manner. A solution marketed under the designation RPMI 1640 (Manufactured by Gibco) was used as the cell culture medium, to which heparin (10 international units/ml) and antibiotics were added according to the procedure of Bonney et al. (Biochem. J. 176 (1978) 422-433). The cell suspension was adjusted to a cell concentration of 10^6 cells per ml and distributed uniformly on titer dishes containing 24 1-ml titer cells (wells). These were kept for two hours in a humidified incubator filled with air enriched with 7% CO2. Cells not adhering to the titer well walls were then removed by washing. The remaining macrophage cells adhering to the walls were incubated for about 12 hours in a suspension medium to which 0.1% of bovine serum albumin (BSA=Bovine Serum Albumin) was added. The suspension medium was then replaced by a Hanks salt solution (=Hanks Balanced Salt Solution=HBSS) with 10 mmoles of HEPES (=hydroxyethylpiperazinoethanesulfonic acid) to which a 0.1% strength solution of the test substances in aqueous, 1% strength dimethylformamide or only the solvent had been added. After 15 minutes the arachidonic acid metabolism was stimulated by adding […] of zymosan (=glycoprotein mixture isolated from cell walls of beer yeast, Saccharomyces cerevisiae, Manufactured by Sigma Chemical Co., Munich) per titre cell. After 2 hours samples of the respective supernatant liquid in each cell were examined for their 6-keto-PGF1α and LTC4 contents by an enzyme immunoassay (=EIA). This EIA is carried out following the method of Pradelles et al. (Analytical Chem. 57 (1985), 1170-1173). The determination of LTC4 and the determination of 6-keto-PGF1α were each carried out on suitable dilutions of the samples (1:50 to 1:250 for the LTC4 determination and 1:250 to 1:1,250 for the 6-keto-PGF1α determination) in comparison with a comparative scale. To determine the inhibiting effect of a 10^-5 molar concentration of the compounds, the amounts of reference eicosanoid were determined, and the inhibiting effect was calculated therefrom in % inhibition compared to the measurements of the zymosan controls.

| Compound | % inhibition upon release of LTC4 |
| --- | --- |
| Cc1ccnc(N2CCN(CCCCC3Sc4ccccc4NC3=O)CC2)c1 (centres unmarked) [Example 1, 2-{4-[4-(4-methylpyridin-2-yl)-piperazin-1-yl]butyl}-2H-1,4-benzothiazine-3(4H)-one] | 48% |
| Cc1ccnc(N2CCN(CCCCC3Oc4ccccc4NC3=O)CC2)c1 (centres unmarked) [Example 7] | 46% |
| Cc1ccnc(N2CCN(CCCC3Oc4ccccc4NC3=O)CC2)c1 (centres unmarked) [Example 9] | 65% |
| Cc1ccnc(N2CCN(CCCC3Sc4ccccc4NC3=S)CC2)c1 (centres unmarked) [Example 11] | 42% |
| O=C1Nc2ccccc2SC1CCCN1CCN(c2ccc(Cl)cn2)CC1 (centres unmarked) [Example 15] | 9% |
